Measured values reported in publication PMC5679629, “Flavin-containing monooxygenase 3 (FMO3) role in busulphan metabolic pathway” (PLoS ONE, 2017).

Legend:
[1] = design: method as in PMID 2886318; conditions: rats, cited from earlier work
[2] = Busulphan and THT plasma kinetics in a patient treated concomitantly with voriconazole; assay type: in vivo, human; conditions: Bu 2mg/kg b.i.d. with concomitant voriconazole
Description: In order to confirm the contribution of FMO3 to human Bu kinetics, blood samples were collected (routinely) from a patient who underwent stem cell transplantation and was conditioned according to the hospital transplantation protocol i.e. high dose of Bu (2mg/kg b.i.d.) for four days followed with two days of cyclophosphamide (60mg/kg). […] Voriconazole was administered, according to the hospital clinical protocol, for the treatment of an acute fungal infection.
Samples were taken for therapeutic drug monitoring (TDM) at several time points after the first, third and fifth doses. Blood was collected into EDTA vacutainer tubes, plasma was separated by centrifugation at 1200 g and stored at -20°C until analysis of Bu and THT [18].

[3] = system: GSTA1 mRNA; experiment: Gene expression in patients conditioned with busulphan (gene array); assay type: in vivo, human; conditions: oral Bu 2mg/kg b.i.d. for 4 days
Description: (§1) FMO3 mRNA expression was studied in twelve patients undergoing HSCT at the Center for Allogeneic Stem Cell Transplantation (CAST), Karolinska University Hospital-Huddinge, Sweden. The study was approved by the ethical committee of Karolinska Institutet (616/03) in accordance with the Helsinki Declaration of 1975 and with informed consent from each patient or their guardian. All patients were treated with oral Bu, administered at a dose of 2mg/kg (8μmol/kg) b.i.d. for 4 days followed by an i.v. infusion of cyclophosphamide (Cy) 60mg/kg/day (230μmol/kg/day) once daily for 2 days before the stem cell infusion.
(§2) Blood samples for mRNA quantification were collected in PAXgene^TM blood RNA tubes (BD, Stockholm, Sweden) prior to the start of Bu treatment and after the last Bu dose.
(§3) RNA was extracted from the mononuclear cells using QuickPreps^TM Total RNA Extraction Kit (GE Life Sciences, Uppsala, Sweden). RNA (1μg) was reverse transcribed to complementary DNA (cDNA) using the TaqMan^TM Kit (Applied Biosystems, Roche, NJ, USA).
(§4) Purified mRNA was subjected to analysis of global gene expression by using NimbleGen microarrays (Roche Diagnostics Scandinavia, Bromma, Sweden). Data were analyzed by Genespring GX (Agilent, CA, USA). Quantile normalization was used on the probe expression data generated using the Robust Multichip Average algorithm.

[4] = in vivo; conditions: male, C57BL/6N, mouse, plasma, ip, 25 mg/kg
Description: (§5) Male C57BL/6N mice (6–8 weeks old) were purchased from Charles River (Cologne, Germany). The mice were allowed to acclimatize to the surroundings for 2 weeks with a 12h dark/12h light cycle and randomized for treatment. Standard laboratory chow and water ad libitum was introduced.
(§6) To study Bu and THT kinetics, Bu (Sigma-Aldrich, Steinheim, Germany) was administered i.p. (25mg/kg or 100μmol/kg) as a 2mM solution in DMSO (Sigma-Aldrich, Stockholm, Sweden) [21]. THT was also prepared as a 2mM solution in DMSO and the dose given was equimolar to the Bu treatment (i.e. 100μmol/kg or 8.8 mg/kg). Upon injection, samples were diluted with physiological NaCl solution to a final DMSO concentration of 10% in the dosing solution. At the appropriate time points (10min, 30min, 1h, 2h, 4h, 6h and 8h), mice (three mice at each time point) were anesthetized using 2% isoflurane and the blood samples were collected by heart puncture. Mice were euthanized by cervical dislocation. Plasma was separated and stored at -20°C.
(§7) PTU (3mg/kg) was dissolved in DMSO and diluted with physiological NaCl solution and then injected into the mice once daily followed by Bu or THT injections on the 4th day. The mice were euthanized and plasma samples prepared as in the previous experiment.
(§8) To detect the effect of high THT concentrations on Bu metabolism, a third group of mice was injected with both Bu (100μmol/kg) and a high dose of THT (17.6mg/kg or 200μmol/kg) and samples prepared as described previously. All experiments including negative controls (mice injected with 10% DMSO in NaCl solution) and mice injected with PTU alone were performed in triplicates.
(§9) To quantify Bu, samples were extracted according to the method reported previously by Hassan et al. [24]. Briefly, 500 μL of plasma were diluted with 500 μL of water. Fifty microliters of the internal standard (1,5-bis(methanesulfonoxy)pentane; 38.5 μM) were added, followed by the addition of 1 mL of sodium iodide (8M, Merck, Darmstadt, Germany) and 400μL of n-heptane (Merck, Darmstadt, Germany). The tubes were placed under magnetic stirring in a water bath (70°C) for 45 min. During the reaction, busulphan and 1,5-bis(methanesulfonoxy)pentane were converted to 1,4-diiodobutane and 1,5-diiodopentane respectively and subsequently extracted with n-heptane [25]. The conversion of busulphan and 1,5-bis(methanesulfonoxy)pentane to 1,4-diiodobutane and 1,5-diiodopentane was over 90% [24]. The organic phase was analyzed by GC-MS [18]. THT was quantified as described previously and the method was validated for use with mouse plasma before measuring both Bu and THT [19, 20].
(§10) Kinetic parameters from in vivo studies were estimated using WinNonLin software (standard edition, version 2.0), while Microsoft Excel and SigmaPlot software (version 12.5, Systat software, Inc.) were utilized for in vitro kinetics.

[5] = system: FMO3 mRNA; experiment: Gene expression in patients conditioned with busulphan (gene array, qRT-PCR); assay type: in vivo, human; conditions: oral Bu 2mg/kg b.i.d. for 4 days, normalized to GAPDH
Description: as §1, §2, §3
as §4, with “algorithm. […]” for “algorithm.”

[6] = Busulphan kinetics in mice (alone, after PTU pretreatment, or with high-dose THT); conditions: for AUC / Cmax: male, C57BL/6N, mouse, plasma, ip, 25 mg/kg, mean
Description: as §5, §6, §7, §8, §9, §10

[7] = cited from earlier work
[8] = within 72 hours of administration
[9] = Group 1: mice, Bu 25mg/kg i.p. alone
[10] = Group 2: mice, Bu 25mg/kg i.p. after PTU 3mg/kg i.p. once daily for 3 days

**Q.** With O=S1(=O)CCC(O)C1 (stereo not shown) [3-OH-sulfolane, 3-hydroxysulfolane] as the molecule, how does the “share of Bu excreted in urine as this metabolite” value [1, 8] read?
**A.** 39%

**Q.** For [O-][S+]1CCCC1 [THT 1-oxide, tetrahydrothiophene 1-oxide], which “share of Bu excreted in urine as this metabolite” value [1, 8] is on record?
**A.** 20%

**Q.** What does the source list for CS(=O)(=O)OCCCCOS(C)(=O)=O [Bu, Busulphan]?
**A.** Bu levels versus same dose of Bu administered alone [2]: higher than expected; Bu clearance versus a patient treated with Bu alone ([2]; P<0.05): slower; GSTA1 mRNA after Bu conditioning versus before [3]: significantly up-regulated; AUC [4]: 65.5 µM·h; Cmax [4]: 16.5 µM; FMO3 mRNA after Bu conditioning versus before [5]: significant up-regulation; AUC [6, 9]: 44.3 µM·h; AUC [6, 10]: 65.3 µM·h; Cmax [6, 9]: 7.47 µM; Cmax [6, 10]: 25.5 µM; Bu plasma concentrations and Bu exposure (AUC) versus Bu alone ([6]; mice treated with FMO3 inhibitor PTU before Bu administration): significantly (P<0.05, t-test) higher; levels of Bu versus Bu alone ([6]; mice, concomitant administration of THT and Bu): higher levels; decrease of Bu clearance ([7]; child with AML, after two days concomitant metronidazole): 46%; daily AUC in excess of the predicted ([7]; child with AML, concomitant metronidazole): 86%; mean Bu trough levels with concomitant metronidazole ([7]; patients undergoing HSCT): two-fold higher; Bu excreted in the urine as unchanged drug [1]: 2%; Bu excreted in the form of its subsequent metabolites [1, 8]: more than 70%
